Article PMC10610545, “Preclinical Evaluation of an Imidazole-Linked Heterocycle for Alzheimer’s Disease” (Pharmaceutics, 2023)

How the values were obtained:
[1] = tested on: I2-IR; conditions: rat cerebral cortex, 1 µM yohimbine; >50% considered significant
[2] = tested on: HT-22 mouse hippocampal neuronal cell line; experiment: Cytotoxicity of compounds alone, MTT assay, HT-22; format: cell-based; conditions: HT-22, 24 h, escalating concentrations
Method: (§1) In the study of neurotoxicity associated with AD, the HT22 mouse hippocampal neuronal cell line has been recognized as an effective cell model. HT22 cells were purchased from Merck-Sigma-Aldrich (SCC12, Madrid, Spain) and cultured in DMEM-F12 (Gibco, Fisher Scientific, Madrid, Spain) supplemented with foetal bovine serum (FBS, 10%) and 1% penicillin/streptomycin under standard conditions (37 °C, 5% CO2). The human dopaminergic cell line SH-SY5Y, in turn, has been widely used as an in vitro model to study the pathogenesis of PD associated with dopaminergic degeneration. Cells, acquired from the American Type Culture Collection (ATCC, Rockville, MD, USA, Ref.CRL-2266), were grown in RPMI medium (Gibco) supplemented with glutamine (2 mM), 10% FBS, and 1% penicillin/streptomycin under standard conditions. Semiconfluent cells (90%) were seeded on 96-well plates at 3 × 10^4 per well and incubated for 24 h before treatment.
(§2) Neuronal cultures, HT-22 and SH-SY5Y, seeded on 96-well plates were treated with LSL33, LSL34, and LSL60101 for 24 h, and viability was assessed using the MTT assay. […] Then, cultures were treated for 1h with LSL33 at 2 μM and LSL34 and LSL60101 at 1 μM. This dose was chosen based on previous studies. Subsequently, HT-22 cultures were exposed to glutamate (10 mM, Merck-Sigma), while SH-SY5Y cultures received 6-hydroxydopamine (6-OHDA, 35 μM, Merck-Sigma). The cells were then incubated for a minimum of 16 h. Finally, the cellular viability and nitrite production of the cultures were assessed.
The assessment of cell viability was conducted using the 3-(4,5-dimethylthiazol-2-yl)-5-(3-carboxymethoxyphenyl)-2-(4-sulfophenyl)-2H-tetrazolium (MTT) assay, following the instructions provided by the manufacturer (Roche Diagnostic, Darmstadt, Germany). […] The absorbance of the solution was measured at 595–650 nm using a spectrophotometer. The experiments were performed at least three times, and the results were expressed as a percentage of the control. […]

[3] = tested on: HT-22 hippocampal cells; experiment: Glutamate-induced damage in HT-22 cells (MTT viability, Griess nitrite); format: cell-based, mouse; conditions: HT-22, 10 mM glutamate; for neuroprotection (cell viability, MTT): 1 h pretreatment, LSL33 2 μM, LSL34 and LSL60101 1 μM; for nitrite production: culture supernatant
Method: as §1, §2
(§3) The assessment of cell viability was conducted using the 3-(4,5-dimethylthiazol-2-yl)-5-(3-carboxymethoxyphenyl)-2-(4-sulfophenyl)-2H-tetrazolium (MTT) assay, following the instructions provided by the manufacturer (Roche Diagnostic, Darmstadt, Germany). Briefly, after exposure to glutamate or 6-OHDA, the cell culture medium was replaced with 100 μL of fresh culture medium containing MTT solution (0.5 mg/mL) and incubated for 1 h. The medium was then removed, and the resulting formazan crystals were dissolved in dimethylsulfoxide (DMSO, Merck-Sigma). The absorbance of the solution was measured at 595–650 nm using a spectrophotometer. The experiments were performed at least three times, and the results were expressed as a percentage of the control.
(§4) Following the designated treatments, 100 μL of the cell culture supernatant was mixed with an equal volume of Griess reagent (consisting of 1% sulfanylamide and 0.1% naphthyl ethylene diamine in 5% phosphoric acid, sourced from Sigma-Aldrich, Madrid, Spain) at room temperature for 15 min. To determine the nitrite concentrations, a standard solution of sodium nitrite was employed. The absorbance of the mixture was measured at 492/540 nm using a microplate reader from Thermofisher (Madrid, Spain). The experiments were repeated a minimum of three times.
(§5) Figure 4 In vitro screening of I2-IR ligands: Assessment of neuroprotective and anti-inflammatory effects HT-22 cells exposed to 10mM glutamate for at least 16 h Similarly, SH-SY5Y was damaged with 35 μM 6-OHDA (35 μM). Some cultures were pretreated with the I2-IR ligands. Cell viability was evaluated using the MTT assay, and nitrite production in the cell supernatant was quantified using the Griess reaction. The reported values represent the mean ± SD obtained from triplicate determinations repeated at least three times. Statistical analysis was performed: * p ≤ 0.05, ** p ≤ 0.01, *** p ≤ 0.001 (versus glutamate- or 6-OHDA-treated cultures); ^# p ≤ 0.05, ^### p ≤ 0.001 (versus idazoxan-treated cultures); ^& p ≤ 0.1, ^&&& p ≤ 0.001 (versus 2-BFI-treated cultures).

[4] = tested on: glial cells: BV2 (microglia), C6 (astroglia), primary microglial and astroglial cultures; experiment: LPS-induced nitrite production in glial cultures (Griess); format: cell-based, mouse, rat; conditions: LPS 10 μg/mL, 24 h, ligands at 1 μM
Method: PD has been described in the same way. Therefore, we based our in vitro model of neuroinflammation on the use of two established glial cell lines, C6 and BV2, as well as primary glial cultures derived from the mouse cerebral cortex. […] When attaining semiconfluence, glial cells were seeded on 96-well plates at 3 × 10^4/well and incubated for 24 h before treatment. Primary astrocytes and microglia were obtained and cultured following a previously described protocol. In brief, the cerebral cortex was dissected, dissociated, and incubated with 0.25% trypsin and EDTA at 37 °C for 1 h. The tissue was then centrifuged, and the resulting pellet was washed with Hanks’ balanced salt solution (Invitrogen). The cells were plated on non-coated flasks and incubated under standard conditions for a minimum of 7 days. Subsequently, each type of glial cell was isolated to obtain pure cultures. To achieve this, the glial cells in the culture flasks were agitated on an orbital shaker for 4 h at 240 rpm and 37 °C. […]
To determine the inflammatory state, glial cells subcultured in 96-well plates were exposed to lipopolysaccharide (LPS, 10 μg/mL, Sigma). […] After 24 h in culture, nitrite production was evaluated.
Following the designated treatments, 100 μL of the cell culture supernatant was mixed with an equal volume of Griess reagent (consisting of 1% sulfanylamide and 0.1% naphthyl ethylene diamine in 5% phosphoric acid, sourced from Sigma-Aldrich, Madrid, Spain) at room temperature for 15 min. […] The absorbance of the mixture was measured at 492/540 nm using a microplate reader from Thermofisher (Madrid, Spain). […]
Figure 5 Role of I2-IR ligands in an in vitro model of neuroinflammation. Nitrite production in the supernatant of glial cells was assessed using the Griess reaction after a 24 h exposure to lipopolysaccharide (LPS, 10 μg/mL) in the presence of the indicated I2-IR ligands at a concentration of 1 μM. […]

[5] = tested on: SH-SY5Y dopaminergic neurons; experiment: 6-OHDA-induced damage in SH-SY5Y cells (MTT viability, Griess nitrite); format: cell-based, human; conditions: 35 μM 6-OHDA; for neuroprotection (cell viability, MTT): 1 h pretreatment, LSL33 2 μM, LSL34 and LSL60101 1 μM; for nitrite production: culture supernatant
Method: as §1, §2, §3, §4, §5

Row | Structure (SMILES) | inhibition of [3H]idazoxan binding [1] [%] | cytotoxicity (MTT viability) [2] | neuroprotection (cell viability, MTT) [3] | nitrite production [3] | nitrite levels [4] | neuroprotection (cell viability, MTT) [5] | nitrite production [5]
1 | Cl.c1ccc2sc(-c3ncc[nH]3)cc2c1 [LSL33, 2-(Benzo[b]thiophene-2-yl)-1H-imidazole hydrochloride] | 84 | None of the compounds tested were cytotoxic | potent neuroprotective effects | significant attenuation of the increased nitrite production | notable reduction in nitrite levels | potent neuroprotective effects | significant attenuation of the increased nitrite production
2 | Cl.c1ccc2oc(-n3ccnc3)cc2c1 [LSL34, 1-(Benzofuran-2-yl)-1H-imidazole hydrochloride] | 53 | None of the compounds tested were cytotoxic | potent neuroprotective effects | significant attenuation of the increased nitrite production | notable reduction in nitrite levels | potent neuroprotective effects | significant attenuation of the increased nitrite production
3 | c1ccc2oc(-c3ncc[nH]3)cc2c1 [LSL60101, reference compound] | – | None of the compounds tested were cytotoxic | potent neuroprotective effects | significant attenuation of the increased nitrite production | notable reduction in nitrite levels | potent neuroprotective effects | significant attenuation of the increased nitrite production
